# From US20060275816A1, “Methods for identifying drug pharmacology and toxicology” (priority 2005, published 2006)
# “Also recorded” adds a separate entry of the source. Like-named read-outs stand apart in the source and are kept apart here.
# Legend:
# [1] = test system: HepG2 cells; assay: Cytotoxicity, CellTiter Blue Cell Viability Assay (LD50); type: cell-based
# Method: FIG. 3 provides a graphical illustration of an experimental approach used to assess candidate compounds. (1) Cells were plated and allowed to adhere for one day. At that time various concentrations of compound were added to cells and incubated for an additional 72 hours. […] (2) Cells were plated as above and treated with compound at the predetermined LD50 concentration. Following 24 hours incubation in the presence of compound, cells were collected, RNA was harvested and 3) analyzed using the RiboChip.
# In an embodiment, human hepatocellular carcinoma HepG2 cells were used to test the effect of a compound on liver biology and toxicology. […] In an embodiment, a single acute dose of a compound is used. […] The choice of high dose identifies the possible modes of toxicity and detects low-incidence responses.
# Cells were maintained as recommended in Minimal Essential Medium (MEM) (Gibco-BRL, a Division of Invitrogen, Carlsbad, Calif.) with 10% fetal bovine serum (FBS, HyClone, Logan, Utah) supplemented with antibiotics in p150 plates at 37° C., 5% CO2. Cells were split 1:5 and fresh media added every 3 days.
# Cytotoxicity was assessed using the Alamar Blue-based CellTiter™ Blue Cell Viability Assay (Promega, Madison, Wis.) to determine the viable cell fraction that remained following a 72 hour treatment period. Cells (˜8,000 cells/well) were plated in 96 well BioCoat collagen coated plates (Becton Dickinson, Franklin Lakes, N.J.) using standard media. […] Cells were then allowed to recover for 24 hours at 37° C., 5% CO2. A two (2) fold dilution series was prepared for each compound starting at 3.0 mM in MEM containing 0.1% BSA (instead of 10% FBS) but without phenol red or antibiotics. Following the cell recovery period, the media was removed and fresh media containing compound was added. Treatments were performed in triplicate for each compound at each dose. Cells were incubated with compound for 72 hours at 37° C., 5% CO2. The viable cell fraction remaining was determined by washing the wells with fresh media without indicator, lysing the remaining live cells by adding 0.9% Triton X-100 (Sigma, St. Louis, Mo.) in water, and performing the Alamar Blue assay as described in the CellTiter™ Blue Cell Viability Assay product literature.
# [2] = test system: HepG2 cells; assay: Apoptosis, Apo-ONE Homogeneous Caspase-3/7 Assay; type: cell-based, human; conditions: 24 hours
# [3] = patients; Lebovitz 2002; cited from earlier work
# [4] = test system: CCR2 mRNA; assay: Quantitative Real Time PCR of CCR2 mRNA in TZD-treated cells; conditions: HepG2 cells, LD50 concentration, 24 hours, compound alone
# [5] = HepG2 cells, concentration giving 50% cell death after 72 hours
compound,measurement,setting,value
CCCCCCCCCCCCCCC(Br)C(=O)O (stereo not drawn) [2-Bromohexadecanoic Acid],LD50,[1]; [5],94 µM
"CCCCC/C=C/C=C1/C(=O)C=C[C@@H]1C/C=C\CCCC(=O)O [15-Deoxy-Δ^12,14-Prostaglandin J2]",LD50,[1],34 µM
CC(C)(Oc1ccc(CCNC(=O)c2ccc(Cl)cc2)cc1)C(=O)O [Bezafibrate],LD50,[1]; [5],1940 µM
CC1(COc2ccc(CC3SC(=O)NC3=O)cc2)CCCCC1 (stereo not drawn) [Ciglitazone],cell death at 175 μM,[1],significant cell death
same,LD50,"[1]; human, 72 h",76 µM
same,induction of apoptosis (Caspase 3/7 activity),[2],potent inducers of apoptosis
CCOC(=O)C(C)(C)Oc1ccc(Cl)cc1 [Clofibrate],LD50,[1]; [5],240 µM
CCCCC(CC)COC(=O)c1ccccc1C(=O)OCC(CC)CCCC (stereo not drawn) [Diethylhexylphthalate],LD50,[1]; [5],34 µM
CC(C)OC(=O)C(C)(C)Oc1ccc(C(=O)c2ccc(Cl)cc2)cc1 [Fenofibrate],LD50,"[1]; human, 72 h",500 µM
O=C(Nc1ccccc1)c1cc([N+](=O)[O-])ccc1Cl [GW-9662],LD50,[1],125 µM
Cc1ccc(C)c(OCCCC(C)(C)C(=O)O)c1 [Gemfibrozil],LD50,[1]; [5],163 µM
O=C(O)C(F)(F)C(F)(F)C(F)(F)C(F)(F)C(F)(F)C(F)(F)C(F)(F)F [Perfluourooctanoic Acid],LD50,[1]; [5],191 µM
CCc1ccc(CCOc2ccc(CC3SC(=O)NC3=O)cc2)nc1 (stereo not drawn) [Pioglitazone],induction of apoptosis (Caspase 3/7 activity),[2],did not induce apoptosis at all or only modestly did so; also recorded: undetectable
CN(CCOc1ccc(CC2SC(=O)NC2=O)cc1)c1ccccn1 (stereo not drawn) [Rosiglitazone],induction of apoptosis (Caspase 3/7 activity),[2],did not induce apoptosis at all or only modestly did so
Cc1c(C)c2c(c(C)c1O)CCC(C)(COc1ccc(CC3SC(=O)NC3=O)cc1)O2 (stereo not drawn) [Troglitazone],cell death at 175 μM,[1],significant cell death
same,LD50,[1]; [5],18 µM
same,induction of apoptosis (Caspase 3/7 activity),[2],potent inducers of apoptosis
same,toxicity that ended marketing or development,[3],hepatotoxicity
same,increased CCR2 expression relative to control,[4],6 ×
Cc1cccc(Nc2cc(Cl)nc(SCC(=O)O)n2)c1C [Wyeth14643],LD50,[1],226 µM
N-Acetly-Asp-Glu-Val-Asp-aldehyde [DEVD],block of TZD-induced apoptosis,[2]; co-administered with TZDs,efficiently blocked
